Marks after values point to notes of the source that are not given here.

For assay [1], the system named is cells derived from rat skeletal muscle (L6 cells). As to the kind of experiment: Intake of RI-labeled 2-deoxyglucose into differentiated L6 cells. The format is cell-based. The settings on record: n=4. As to the method:
Cells derived from rat skeletal muscle (L6 cells, product of Dainippon Pharmaceutical Co., Ltd.) were suspended in 15 mL of DMEM (Dulbecco's modified Eagle medium, product of SIGMA Co.) containing 10% by mass FBS (fetal bovine serum, product of GIBCO Co.) and 1% by mass AB (anti-biotic solution, product of SIGMA Co.). The resultant suspension was dispensed into 75-cm^2 culture flasks and then statically cultured at 37° C. under 5% CO2. After having reached subconfluency (80%), each culture was placed in a 24-well plate (product of SUMITOMO BAKELITE CO., LTD.) at 50,000 cells/well. After having reached confluency, the cells were cultured for three days. Then, the medium was exchanged with MEM (minimal essential medium, product of NACALAI TESQUE, INC.) containing 2% by mass FBS and 1% by mass AB to thereby induce differentiation of the L6 cells. Eight days after the induction of differentiation, a solution of panaxatriol (PT) (product of LKT Laboratories, Inc.) in ethanol was added to the resultant medium so that the concentration of panaxatriol (PT) was 1 ppm or 10 ppm. The PT-free well was used as a control for each of these wells. Then, 30 hours after, the medium of each well was exchanged with MEM containing 2% by mass BSA (bovine serum albumin, product of SIGMA Co.) and panaxatriol (PT) at a concentration of 1 ppm or 10 ppm, to thereby terminate sensitization. Furthermore, 18 hours after, the MEM containing 2% by mass BSA was removed, and a KRH buffer (50 mM HEPES (product of SIGMA Co.), pH 7.4, 137 mM sodium chloride (product of Wako Pure Chemical Industries, Ltd.), 4.8 mM potassium chloride (product of Wako Pure Chemical Industries, Ltd.), 1.85 mM calcium chloride (product of Wako Pure Chemical Industries, Ltd.) and 1.3 mM magnesium sulfate (product of Wako Pure Chemical Industries, Ltd.)) was added to the wells at 30 μL/well. Thereafter, 6 μL of RI-labeled 2-deoxyglucose (2-DG, product of American Radiolabeled Chemicals Co.) (final concentration: 6.5 mM (0.5·Ci)) was added to the wells to perform reaction. Five minutes after the initiation of reaction, the cells were washed four times with an ice-cooled KRH buffer to remove 2-DG that had not been taken into the L6 cells. After removal of the KRH buffer, the cells were lysed with 250 μL of 0.05N sodium hydroxide (product of Wako Pure Chemical Industries, Ltd.) and recovered in a vial. In addition, the wells were washed twice with 200 μL of the KRH buffer and recovered in the vial similarly. Then, 3 mL of liquid scintillation cocktail PICOFLOUR (product of PerkinElmer Co., Ltd.) was added to the vial containing the cells recovered, followed by measuring for radioactivity with a liquid scintillation counter (LSC-5100, product of Aloka Co.). […]

The subject of assay [2] is model mice of hyperglycemia (KKAy mouse). Kind of assay: Amount of 13CO2 excreted in exhaled gas after oral glucose-U-13C6. The format is in vivo. To be noted: 0.1% by mass in high fat diet for one week, four hours after oral glucose-U-13C6, versus control group. Here is the method: Twenty-four model mice of hyperglycemia (KKAy mouse (product of CLEA Japan, Inc.), male, four weeks old) were preliminarily bred for one week in individual cages under the following conditions: temperature: room temperature (22° C.±1° C.), humidity: 50%±5%, and light-dark cycle: 12 hours. Eight grams per day of CE-2 (product of CLEA Japan, Inc.) was given to each mouse as feed during the preliminary breeding, while water was given ad libitum. […] Thereafter, an aqueous solution of glucose and glucose-U-^13C6 was orally administered to each mouse at a concentration calculated from the following: [2.0 g D-glucose (product of NACALAI TESQUE, INC.)+72 mg D-glucose-U-^13C6 (99%) (product of Cambridge Isotope Lab.)/kg-body weight]. Then, the cumulative amount of ^13CO2 excreted was measured for four hours. The cumulative amount of ^13CO2 excreted is expressed as AUC (increment in the amount of ^13CO2 excreted). Here, the AUC (increment in the amount of ^13CO2 excreted) refers to an area corresponding to the increment between the amount of ^13CO2^3 excreted prior to administration of glucose-U-^13C6 (baseline) to the amount of ^13CO2 excreted measured four hours after administration of glucose-U-^13C6 in a graph where a change in the amount of ^13CO2 excreted is plotted against time after administration of glucose-U-^13C6.

On to `CC1(C)CCC[C@](C)([C@H]2CC[C@]3(C)[C@@H]2[C@H](O)C[C@@H]2[C@@]4(C)CC[C@H](O)C(C)(C)[C@@H]4CC[C@]23C)O1` [PD, panaxadiol], for which the “Relative activity (radioactivity of 2-DG taken in, compound-free well = 100)” value is listed as 130* in assay [1] (1 ppm) and 140** in assay [1] (10 ppm). For the same molecule, the “amount of 13CO2 excreted” value in assay [2] is listed as “significantly increased”.
For `CC1(C)CCC[C@](C)([C@H]2CC[C@]3(C)[C@@H]2[C@H](O)C[C@@H]2[C@@]4(C)CC[C@H](O)C(C)(C)[C@@H]4[C@@H](O)C[C@]23C)O1` [PT, panaxatriol] the same measures were 132*, 145** and “significantly increased”.

Values taken from patent publication US20120116069A1, “GLUCOSE METABOLISM-IMPROVING AGENT AND GLUCOSE METABOLISM-IMPROVING COMPOSITION” (LION CORPORATION, priority 2009, published 2012).
